Measurements as given in patent US11524968B2, “Heterocyclic compound as a protein kinase inhibitor” (HK inno.N Corporation, priority 2017, dated 2022).

Molecular target: JAK1 (Homo sapiens (Human), UniProt P23458)
Experiment: Analysis of JAK1 activity inhibition ability (ADP-Glo Kinase Assay)
Format: biochemical
Conditions: JAK1 enzyme, ADP-Glo luminescence, ATP 250 uM, IRS-itide substrate, 30° C. 40 minutes; read-out: IC50
Procedure, shortened: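 ADP-Glo luminescence read-out of ADP production, with IC50 taken as the concentration halving JAK1 activity relative to control. Enzyme was incubated 40 min at 30 °C with compound, IRS-itide (40 ng/mL) and ATP (250 uM), concentrations as prepared in pH 7.5 Tris-HCl/MgCl2/BSA/DTT buffer.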

JAK1, sequence (P23458 whole entry): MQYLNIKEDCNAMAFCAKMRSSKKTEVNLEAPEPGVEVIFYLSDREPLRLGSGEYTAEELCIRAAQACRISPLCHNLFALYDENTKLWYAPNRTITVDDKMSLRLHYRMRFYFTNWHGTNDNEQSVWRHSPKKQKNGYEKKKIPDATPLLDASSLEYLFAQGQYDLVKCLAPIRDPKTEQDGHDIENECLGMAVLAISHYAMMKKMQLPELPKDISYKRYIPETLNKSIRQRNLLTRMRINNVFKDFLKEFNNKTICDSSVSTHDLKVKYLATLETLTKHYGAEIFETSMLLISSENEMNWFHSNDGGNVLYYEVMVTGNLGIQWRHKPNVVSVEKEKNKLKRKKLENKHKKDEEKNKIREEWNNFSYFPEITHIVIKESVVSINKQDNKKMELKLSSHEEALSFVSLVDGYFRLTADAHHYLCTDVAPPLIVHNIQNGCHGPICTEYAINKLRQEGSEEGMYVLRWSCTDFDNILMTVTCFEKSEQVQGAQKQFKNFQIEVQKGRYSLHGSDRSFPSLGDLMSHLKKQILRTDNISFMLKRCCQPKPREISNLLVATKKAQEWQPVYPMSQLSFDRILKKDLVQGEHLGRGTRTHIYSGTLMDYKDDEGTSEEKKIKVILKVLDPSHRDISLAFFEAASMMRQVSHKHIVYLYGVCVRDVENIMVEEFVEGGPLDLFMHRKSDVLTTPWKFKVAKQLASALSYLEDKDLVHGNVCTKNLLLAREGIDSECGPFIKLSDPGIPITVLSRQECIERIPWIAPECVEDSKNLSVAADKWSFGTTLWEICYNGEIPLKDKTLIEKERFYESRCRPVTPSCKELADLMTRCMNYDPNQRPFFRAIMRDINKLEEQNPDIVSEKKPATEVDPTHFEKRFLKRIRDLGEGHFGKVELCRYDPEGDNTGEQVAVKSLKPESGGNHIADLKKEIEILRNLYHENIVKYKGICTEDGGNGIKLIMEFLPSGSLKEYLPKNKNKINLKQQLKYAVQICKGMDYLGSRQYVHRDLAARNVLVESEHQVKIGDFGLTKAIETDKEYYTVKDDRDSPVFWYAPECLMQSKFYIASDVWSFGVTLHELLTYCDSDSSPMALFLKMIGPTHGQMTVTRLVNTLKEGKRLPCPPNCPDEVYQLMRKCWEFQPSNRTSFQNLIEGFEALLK

CCCS(=O)(=O)Nc1ccc(-c2cc(NC(=O)C3CC3)nc3[nH]ccc23)cc1CC [Example 126, N-(4-(3-ethyl-4-(propylsulfonamido)phenyl)-1H-pyrrolo[2,3-b]pyridin-6-yl)cyclopropanecarboxamide]
IC50: < 20 nM

N#Cc1ccc(S(=O)(=O)Nc2ccc(-c3cc(NC(=O)C4CC4)nc4[nH]ccc34)cc2)cc1 [Example 21, N-(4-(4-((4-cyanophenyl)sulfonamido)phenyl)-1H-pyrrolo[2,3-b]pyridin-6-yl)cyclopropanecarboxamide]
IC50: 20 to 200 nM

O=C(Nc1nc(-c2ccc(NS(=O)(=O)N3CCOCC3)cc2)c2nc[nH]c2n1)C1CC1 [Example 238, N-(6-(4-(morpholine-4-sulfonamido)phenyl)-9H-purin-2-yl)cyclopropanecarboxamide]
IC50: > 200 nM

N#CCCC(=O)N1C2C=C(c3cc(NC(=O)C4CC4)nc4[nH]ccc34)CC1CC2 (stereo not drawn) [Example 255, N-(4-(8-(3-cyanopropanoyl)-8-azabicyclo[3.2.1]oct-2-en-3-yl)-1H-pyrrolo[2,3-b]pyridin-6-yl)cyclopropanecarboxamide]
IC50: < 20 nM

O=C(Nc1cc(C2=CCN(C(=O)CCl)CC2)c2cc[nH]c2n1)C1CC1 [Example 298, N-(4-(1-(2-chloroacetyl)-1,2,3,6-tetrahydropyridin-4-yl)-1H-pyrrolo[2,3-b]pyridin-6-yl)cyclopropanecarboxamide]
IC50: 20 to 200 nM

CC(=O)N1CCN(C(=O)Cc2ccc(-c3cc(NC(=O)C4CC4)nc4[nH]ccc34)cc2)CC1 [Example 543, N-(4-(4-(2-(4-acetylpiperazin-1-yl)-2-oxoethyl)phenyl)-1H-pyrrolo[2,3-b]pyridin-6-yl)cyclopropanecarboxamide]
IC50: > 200 nM

CC1CC1C(=O)NC1CC=C(c2cc(NC(=O)C3CC3)nc3[nH]ccc23)CC1 (stereo not drawn) [Example 244, N-(4-(6-(cyclopropanecarboxamido)-1H-pyrrolo[2,3-b]pyridin-4-yl)cyclohex-3-en-1-yl)-2-methylcyclopropane-1-carboxamide]
IC50: > 200 nM

CC1(C)CC(c2cc(NC(=O)C3CC3)nc3[nH]ccc23)=CCN1C(=O)CC#N [Example 387, N-(4-(1-(2-cyanoacetyl)-2,2-dimethyl-1,2,3,6-tetrahydropyridin-4-yl)-1H-pyrrolo[2,3-b]pyridin-6-yl)cyclopropanecarboxamide]
IC50: 20 to 200 nM

O=C(Nc1cc(C2=CCN(C(=O)CCC(F)(F)F)C2)c2cc[nH]c2n1)C1CC1 [Example 429, N-(4-(1-(4,4,4-trifluorobutanoyl)-2,5-dihydro-1H-pyrrol-3-yl)-1H-pyrrolo[2,3-b]pyridin-6-yl)cyclopropanecarboxamide]
IC50: > 200 nM

CS(=O)(=O)Nc1ccc(-c2nc(NC(=O)C3CC3)nc3[nH]ccc23)cc1F [Example 201, N-(4-(3-fluoro-4-(methylsulfonamido)phenyl)-7H-pyrrolo[2,3-d]pyrimidin-2-yl)cyclopropanecarboxamide]
IC50: > 200 nM

CCNC(=O)Nc1ccc(-c2cc(NC(=O)C3CC3)nc3[nH]ccc23)cc1 [Example 431, N-(4-(4-(3-ethylureido)phenyl)-1H-pyrrolo[2,3-b]pyridin-6-yl)cyclopropanecarboxamide]
IC50: 20 to 200 nM

O=C(Nc1cc(C2=CCN(C(=O)C3CC3)CC2)c2cc[nH]c2n1)C1CC1 [Example 264, N-(4-(1-(cyclopropanecarbonyl)-1,2,3,6-tetrahydropyridin-4-yl)-1H-pyrrolo[2,3-b]pyridin-6-yl)cyclopropanecarboxamide]
IC50: 20 to 200 nM

C[C@@H]1CN(C(=O)c2ccc([N+](=O)[O-])cc2)CC=C1c1cc(NC(=O)C2CC2)nc2[nH]ccc12 [Example 398, (S)—N-(4-(3-methyl-1-(4-nitrobenzoyl)-1,2,3,6-tetrahydropyridin-4-yl)-1H-pyrrolo[2,3-b]pyridin-6-yl)cyclopropanecarboxamide]
IC50: < 20 nM

O=C(Nc1cc(-c2ccc(CNS(=O)(=O)c3ccc(F)c(F)c3)cc2)c2cc[nH]c2n1)C1CC1 [Example 582, N-(4-(4-(((3,4-difluorophenyl)sulfonamido)methyl)phenyl)-1H-pyrrolo[2,3-b]pyridin-6-yl)cyclopropanecarboxamide]
IC50: < 20 nM

CC1CN(C(=O)Cc2cccc(F)c2)CC=C1c1cc(NC(=O)C2CC2)nc2[nH]ccc12 (stereo not drawn) [Example 346, N-(4-(1-(2-(3-fluorophenyl)acetyl)-3-methyl-1,2,3,6-tetrahydropyridin-4-yl)-1H-pyrrolo[2,3-b]pyridin-6-yl)cyclopropanecarboxamide]
IC50: 20 to 200 nM

O=C(Nc1cc(C2=CCC(NS(=O)(=O)C3CCC3)CC2)c2cc[nH]c2n1)C1CC1 (stereo not drawn) [Example 165, N-(4-(4-(cyclobutanesulfonamido)cyclohex-1-en-1-yl)-1H-pyrrolo[2,3-b]pyridin-6-yl)cyclopropanecarboxamide]
IC50: < 20 nM

N#CC1(CS(=O)(=O)Nc2cc(F)c(-c3cc(NC(=O)C4CC4)nc4[nH]ccc34)cc2F)CC1 [Example 105, N-(4-(4-(((1-cyanocyclopropyl)methyl)sulfonamido)-2,5-difluorophenyl)-1H-pyrrolo[2,3-b]pyridin-6-yl)cyclopropanecarboxamide]
IC50: < 20 nM

Cc1c(NS(=O)(=O)C2CC2)ccc(-c2cc(NC(=O)C3CC3)nc3[nH]ccc23)c1C [Example 133, N-(4-(4-(cyclopropanesulfonamido)-2,3-dimethylphenyl)-1H-pyrrolo[2,3-b]pyridin-6-yl)cyclopropanecarboxamide]
IC50: < 20 nM

CC(C)(C)OC(=O)N1C=C(c2cc(NC(=O)C3CC3)nc3[nH]ccc23)CCC1 [Example 459, tert-butyl 5-(6-(cyclopropanecarboxamido)-1H-pyrrolo[2,3-b]pyridin-4-yl)-3,4-dihydropyridine-1 (2H)-carboxylate]
IC50: > 200 nM

CS(=O)(=O)N1CCN(Cc2ccc(-c3cc(NC(=O)C4CC4)nc4[nH]ccc34)cc2)CC1 [Example 587, N-(4-(4-((4-(methylsulfonyl)piperazin-1-yl)methyl)phenyl)-1H-pyrrolo[2,3-b]pyridin-6-yl)cyclopropanecarboxamide]
IC50: < 20 nM

O=C(Nc1cc(C2=CCN(C(=O)N3CCS(=O)(=O)CC3)CC2)c2cc[nH]c2n1)C1CC1 [Example 445, N-(4-(1-(1,1-dioxidothiomorpholine-4-carbonyl)-1,2,3,6-tetrahydropyridin-4-yl)-1H-pyrrolo[2,3-b]pyridin-6-yl)cyclopropanecarboxamide]
IC50: 20 to 200 nM

O=C(Nc1cc(C2=CCN(CC3CC3(F)F)CC2)c2cc[nH]c2n1)C1CC1 (stereo not drawn) [Example 489, N-(4-(1-((2,2-difluorocyclopropyl)methyl)-1,2,3,6-tetrahydropyridin-4-yl)-1H-pyrrolo[2,3-b]pyridin-6-yl)cyclopropanecarboxamide]
IC50: 20 to 200 nM

CC(C)CS(=O)(=O)Nc1ccc(-c2cc(NC(=O)C3CC3)nc3[nH]ccc23)cc1 [Example 43, N-(4-(4-((2-methylpropyl)sulfonamido)phenyl)-1H-pyrrolo[2,3-b]pyridin-6-yl)cyclopropanecarboxamide]
IC50: < 20 nM

CN(C1CC1)S(=O)(=O)Nc1ccc(-c2cc(NC(=O)C3CC3)nc3[nH]ccc23)cc1 [Example 217, N-(4-(4-((N-cyclopropyl-N-methylsulfamoyl)amino)phenyl)-1H-pyrrolo[2,3-b]pyridin-6-yl)cyclopropanecarboxamide]
IC50: < 20 nM

N#CCCNC(=O)C1CC=C(c2cc(NC(=O)C3CC3)nc3[nH]ccc23)CC1 (stereo not drawn) [Example 532, N-(2-cyanoethyl)-4-(6-(cyclopropanecarboxamido)-1H-pyrrolo[2,3-b]pyridin-4-yl)cyclohex-3-ene-1-carboxamide]
IC50: 20 to 200 nM

CC(C)CCS(=O)(=O)Nc1ccc(-c2cc(NC(=O)C3CC3)nc3[nH]ccc23)cc1 [Example 45, N-(4-(4-((3-methylbutyl)sulfonamido)phenyl)-1H-pyrrolo[2,3-b]pyridin-6-yl)cyclopropanecarboxamide]
IC50: < 20 nM

CCCCS(=O)(=O)N1CC(n2cc(-c3cc(NC(=O)C4CC4)nc4[nH]ccc34)cn2)C1 [Example 602, N-(4-(1-(1-(butylsulfonyl)azetidin-3-yl)-1H-pyrazol-4-yl)-1H-pyrrolo[2,3-b]pyridin-6-yl)cyclopropanecarboxamide]
IC50: > 200 nM

CCOCCS(=O)(=O)Nc1ccc(-c2cc(NC(=O)C3CC3)nc3[nH]ccc23)cc1 [Example 53, N-(4-(4-((2-ethoxyethyl)sulfonamido)phenyl)-1H-pyrrolo[2,3-b]pyridin-6-yl)cyclopropanecarboxamide]
IC50: 20 to 200 nM

O=C(Nc1cc(-c2ccc(NS(=O)(=O)c3ccc(F)c(F)c3)cc2C(F)(F)F)c2cc[nH]c2n1)C1CC1 [Example 121, N-(4-(4-((3,4-difluorophenyl)sulfonamido)-2-(trifluoromethyl)phenyl)-1H-pyrrolo[2,3-b]pyridin-6-yl)cyclopropanecarboxamide]
IC50: 20 to 200 nM

N#CCCC(=O)N1CC=C(c2cc(NC(=O)C3CC3)nc3[nH]ccc23)CC1 [Example 252, N-(4-(1-(3-cyanopropanoyl)-1,2,3,6-tetrahydropyridin-4-yl)-1H-pyrrolo[2,3-b]pyridin-6-yl)cyclopropanecarboxamide]
IC50: < 20 nM

CC1CN(C(=O)c2cccc(Nc3ccccc3)c2)CC=C1c1cc(NC(=O)C2CC2)nc2[nH]ccc12 (stereo not drawn) [Example 316, N-(4-(3-methyl-1-(3-(phenylamino)benzoyl)-1,2,3,6-tetrahydropyridin-4-yl)-1H-pyrrolo[2,3-b]pyridin-6-yl)cyclopropanecarboxamide]
IC50: > 200 nM

CN(C)CC(=O)N1CC=C(c2cc(NC(=O)C3CC3)nc3[nH]ccc23)CC1 [Example 281, N-(4-(1-(dimethylglycyl)-1,2,3,6-tetrahydropyridin-4-yl)-1H-pyrrolo[2,3-b]pyridin-6-yl)cyclopropanecarboxamide]
IC50: > 200 nM

CCS(=O)(=O)N1C2CCC1CC(c1cc(NC(=O)C3CC3)nc3[nH]ccc13)C2 (stereo not drawn) [Example 646, N-(4-(8-(ethylsulfonyl)-8-azabicyclo[3.2.1]octan-3-yl)-1H-pyrrolo[2,3-b]pyridin-6-yl)cyclopropanecarboxamide]
IC50: > 200 nM
